This note sets out measurements from patent US9035059B2, “Nitrogen-containing condensed heterocyclic compound” (TAISHO PHARMACEUTICAL CO., LTD., priority 2011, dated 2015).

Sequence of human MGAT2 (Q3SYC2 whole entry): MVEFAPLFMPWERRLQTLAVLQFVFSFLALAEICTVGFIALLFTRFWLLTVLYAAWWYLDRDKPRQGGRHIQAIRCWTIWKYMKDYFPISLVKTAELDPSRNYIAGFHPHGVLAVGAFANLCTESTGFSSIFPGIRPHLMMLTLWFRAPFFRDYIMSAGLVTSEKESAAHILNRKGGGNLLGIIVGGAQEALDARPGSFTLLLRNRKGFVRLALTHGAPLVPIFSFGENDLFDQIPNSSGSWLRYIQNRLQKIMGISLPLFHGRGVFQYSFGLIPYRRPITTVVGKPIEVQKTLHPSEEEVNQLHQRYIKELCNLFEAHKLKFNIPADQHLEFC

In the first assay the target is human MGAT2 (Homo sapiens (Human), UniProt Q3SYC2). The assay can be described thus: Test Example 1: Test of MGAT2 inhibitory action (human MGAT2 enzyme fraction from Sf9 cells, free CoA detected by CPM fluorescence). It is filed as biochemical. The following applies: human MGAT2 enzyme fraction expressed in Sf9 insect cells, 0.5 μg/ml, 2-monooleoyl glycerol 0.78 μM, oleoyl-CoA 5.3 μM, room temperature 20 min, listed as 10-8, read-out: Activity Value [nM] (IC50, concentration at which 50% of produced free CoA was inhibited). The method, then:
The MGAT2 inhibitory action of the inventive compound was measured by the methods described in Test Examples as shown below. The MGAT enzyme activity was measured based on the amount of an indicator, free Coenzyme A (CoA) which is generated by the reaction shown below, using a sulfhydryl reactive pigment (7-diethylamino-3-(4-maleimidophenyl)-4-methylcoumarin; hereinafter, sometimes abbreviated as CPM).
A test for MGAT2 inhibitory action of test compounds was conducted in accordance with a partially modified version of the method described in John F. Lockwood et al., Am. J. Physiol. Endocrinol. Metab., 2003, 285, E927.
Bac-to-Bac Baculovirus Expression System (Life Technologies Japan) was used to express human MGAT2 in insect cells (Sf9) (Life Technologies Japan). These cells were sonicated and centrifuged at 100,000 g×1 hr to give a precipitate. The precipitate was used as a human MGAT2 enzyme fraction in this assay.
This test was conducted using a black flat-bottom 96-well plate (Corning). A buffer solution with final concentrations of 5 mM magnesium chloride, 100 mM sucrose and 100 mM Tris-HCl (pH=7.5) was prepared and test compounds prepared in various concentrations using dimethyl sulfoxide were added thereto to give a final dimethyl sulfoxide concentration of 1%. The MGAT2 enzyme fraction was added thereto to give a final concentration of 0.5 μg/ml and phosphatidylcholine, 2-monooleoyl glycerol and oleoyl-CoA were added thereto to give final concentrations of 7.5 μM, 0.78 μM and 5.3 μM, respectively, before starting a reaction. The reaction was performed at room temperature for 20 min.
After 20 min, a CPM-containing solution was added thereto to give a final concentration of 5 μM before stopping the MGAT reaction. After 1 hr, a fluorescence detector (Infinite 200 from Tecan Japan) was used to measure the CPM fluorescence value of each well (excitation 380 nm, emission 460 nm).
As for `CCCCCCCc1ccc(NS(=O)(=O)c2ccc3c(c2)CCN(C(C)Cc2ccc(C(C)(C)C)cc2)C3)c(F)c1` (single isomer, unassigned) [Working Example 10-8], the IC50 turned out to be 62 nM.

Still in this assay, the particulars now being: human MGAT2 enzyme fraction expressed in Sf9 insect cells, 0.5 μg/ml, 2-monooleoyl glycerol 0.78 μM, oleoyl-CoA 5.3 μM, room temperature 20 min, read-out: Activity Value [nM] (IC50, concentration at which 50% of produced free CoA was inhibited).
Regarding `CC(C)(C)c1cnc(CN2CCc3cc(S(=O)(=O)Nc4ccc(CCCC5CCCC5)cc4F)ccc3C2)cn1` [Working Example 7-60], the IC50 was 233 nM.
Still for that read-out and setting: as for `CC(c1ccc(C(C)(C)C)cc1)N1CCc2cc(S(=O)(=O)Nc3ccc(OCCCc4ccccc4)cc3F)ccc2C1` (stereo not shown) [Working Example 11-3], the figure is 116 nM; as for `C/C=C\CCCCCOc1ccc(NS(=O)(=O)c2ccc3c(c2)CN(C(=O)Nc2ccc(C(C)(C)C)cc2)C3)c(F)c1` [19-4], 2 nM; as for `CCCCCOc1ccc(NS(=O)(=O)c2ccc3c(c2)CN(C(=O)Nc2ccc(C(C)(C)C)cc2)C3)c(F)c1` [14-18], 147 nM.
On the same count and under the same terms, as for `CC(C)(C)c1ccc(CCN2CCc3cc(S(=O)(=O)Nc4ccc(CCCC5CCCC5)cc4F)ccc3C2)cn1` [Working Example 6-63], the figure is 62 nM.
Still for that read-out and setting: as for `COc1ccc(NS(=O)(=O)c2ccc3c(c2)CN(C(=O)Nc2ccc(C(C)(C)C)cc2)C3)c(F)c1` [14-16], the figure is 164 nM; as for `CCCCCCOc1ccc(NS(=O)(=O)c2ccc3c(c2)CCN(Cc2ccc(C(C)(C)C)nc2)C3)c(F)c1` [Working Example 6-27], 135 nM; as for `CCCCCCCc1ccc(NS(=O)(=O)c2ccc3c(c2)CCN(CCc2ccc(C(C)(C)C)cc2)C3)c(F)c1` [Working Example 6-18], 35 nM.
Take `CCCCCCCCN1CCc2cc(S(=O)(=O)Nc3ccc(OCCCCCC)cc3F)ccc2C1` [Working Example 6-36]: the IC50 amounted to 253 nM.
Still for that read-out and setting: as for `CCCCCCCOc1ccc(NS(=O)(=O)c2ccc3c(c2)CN(C(=O)Nc2ccc(C(C)(C)C)cc2)C3)c(F)c1` [19-8], the figure is 28 nM; as for `CCCCCCOc1ccc(NS(=O)(=O)c2ccc3c(c2)CCN(CCc2cnc(C(C)(C)C)cn2)C3)c(F)c1` [Working Example 9-20], 212 nM.
The same measure, in the same setting: as for `C/C=C\CCCOc1ccc(NS(=O)(=O)c2ccc3c(c2)CN(C(=O)Nc2ccc(C(C)(C)C)cc2)C3)c(F)c1` [19-11], the figure is 128 nM; as for `CC(C)(C)c1ccc(CCN2CCc3cc(S(=O)(=O)Nc4ccc(OCCCC5CCCCC5)cc4F)ccc3C2)cc1` [17-6], 39 nM.
The same measure, in the same setting: as for `CC(C)(C)c1ccc(CCN2CCc3cc(S(=O)(=O)Nc4ccc(OCCCCc5ccccc5)cc4F)ccc3C2)cc1` [Working Example 8-1, 2-[2-(4-tert-Butylphenyl)ethyl]-N-[2-fluoro-4-(4-phenylbutoxy)phenyl]-1,2,3,4-tetrahydroisoquinoline-6-sulfonamide], the figure is 70 nM.
For the molecule `CC(C)(C)c1ccc(CCN2CCc3cc(S(=O)(=O)Nc4ccc(CCCC5CCOCC5)cc4F)ccc3C2)cc1` [Working Example 6-75], the IC50 is 24 nM.
Same read-out and setting: as for `CCCCCCCCOc1ccc(NS(=O)(=O)c2ccc3c(c2)CN(C(=O)Nc2ccc(C(C)(C)C)cc2)C3)c(F)c1` [18-7], the figure is 7 nM; as for `CCCCCCOc1ccc(NS(=O)(=O)c2ccc3c(c2)CN(C(=O)Nc2ccc(C(C)(C)C)cc2)C3)c(F)c1` [18-6], 43 nM; as for `CC(C)(C)c1ccc(NC(=O)N2Cc3ccc(S(=O)(=O)Nc4ccc(OCCC5CC5)cc4F)cc3C2)cc1` [18-31], 266 nM.
Still for that read-out and setting: as for `O=C(OC1CCCCC1)N1CCc2cc(S(=O)(=O)Nc3ccc(CCCC4CCCC4)cc3F)ccc2C1` [26-1, Cyclohexyl 6-{[4-(3-cyclopentylpropyl)-2-fluorophenyl]sulfamoyl}-3,4-dihydroisoquinoline-2(1H)-carboxylate], the figure is 217 nM; as for `O=S(=O)(Nc1ccc(CCCC2CCCC2)cc1F)c1ccc2c(c1)CCN(Cc1ccc(C(F)(F)F)nc1)C2` [Working Example 6-54], 180 nM; as for `CC(c1ccc(C(C)(C)C)nc1)N1CCc2cc(S(=O)(=O)Nc3ccc(OCCCc4ccccc4)cc3F)ccc2C1` (stereo not shown) [Working Example 11-2], 121 nM.
Take `CCCCCCOc1ccc(NS(=O)(=O)c2ccc3c(c2)CCN(C(=O)Nc2ccc(CCCC)cc2)C3)c(F)c1` [14-3]: the IC50 was determined as 76 nM.
Still for that read-out and setting: as for `CC(C)(C)c1cnc(CCN2CCc3cc(S(=O)(=O)Nc4ccc(CCCC5CCCC5)cc4F)ccc3C2)nc1` [Working Example 6-64], the figure is 40 nM; as for `CC(C)(C)c1ccc(CN2CCc3cc(S(=O)(=O)Nc4ccc(CCCC5CCCC5)cc4F)ccc3C2)cn1` [Working Example 6-31], 31 nM; as for `CC(C)(C)c1ccc(CCN2CCc3cc(S(=O)(=O)Nc4ccc(OCCCc5ccccc5)cc4F)ccc3C2)cc1` [Working Example 8-2], 173 nM.
Still for that read-out and setting: as for `CC(C)(C)c1ccc(NC(=O)N2CCc3cc(S(=O)(=O)Nc4ccc(OCCC5CCOCC5)cc4F)ccc3C2)cc1` [14-35], the figure is 178 nM; as for `COc1cc(F)cc(F)c1NS(=O)(=O)c1ccc2c(c1)CN(C(=O)Nc1ccc(C(C)(C)C)cc1)C2` [14-21], 193 nM.
Same read-out and setting: as for `CCCCCCOc1ccc(NS(=O)(=O)c2ccc3c(c2)CCN(CCc2ccc(C(C)(C)CO)cc2)C3)c(F)c1` [Working Example 6-30], the figure is 214 nM; as for `CC(C)(C)c1ncc(CN2CCc3cc(S(=O)(=O)Nc4ccc(CCCC5CCCC5)cc4F)ccc3C2)cn1` [Working Example 7-56], 52 nM; as for `COc1ccc(OCCOc2ccc(NS(=O)(=O)c3ccc4c(c3)CN(C(=O)Nc3ccc(C(C)(C)C)cc3)C4)c(F)c2)cc1` [18-22], 120 nM.
Take `CCCCCCCc1ccc(NS(=O)(=O)c2ccc3c(c2)CCN(Cc2cnc(C(C)(C)C)s2)C3)c(F)c1` [Working Example 7-32]: the IC50 worked out at 42 nM.
As to `CCCCCCOc1ccc(NS(=O)(=O)c2ccc3c(c2)CCN(CCc2ccc(C(C)(C)C)cc2)C3)c(F)c1` [Working Example 8-3], the IC50 worked out at 133 nM.
In the case of `O=C(NC1CCCCC1)N1CCc2cc(S(=O)(=O)Nc3ccc(CCCC4CCCC4)cc3F)ccc2C1` [14-36], the IC50 turned out to be 69 nM.
The same measure, in the same setting: as for `CC(C)(C)c1ccc(C(=O)N2CCc3cc(S(=O)(=O)Nc4ccc(CCCC5CCCC5)cc4F)ccc3C2)cc1` [Working Example 1-4], the figure is 211 nM; as for `CCCCCCCc1ccc(NS(=O)(=O)c2ccc3c(c2)CCN(Cc2ccc(C(F)(F)F)nc2)C3)c(F)c1` [Working Example 7-29], 134 nM; as for `CC(C)(C)c1ccc(NC(=O)N2Cc3ccc(S(=O)(=O)Nc4ccc(OCCCOc5ccccc5)cc4F)cc3C2)cc1` [18-23], 92 nM.
For the molecule `O=S(=O)(Nc1ccc(CCCC2CCCC2)cc1F)c1ccc2c(c1)CCN(Cc1ccc(OC(F)(F)C(F)F)cc1)C2` [Working Example 7-50], the IC50 came out at 273 nM.
On the same count and under the same terms, as for `CC(C)(C)c1ccc(NC(=O)N2Cc3ccc(S(=O)(=O)Nc4ccc(OCCOC5CCCC5)cc4F)cc3C2)cc1` [18-29], the figure is 128 nM.
The same measure, in the same setting: as for `CC(C)(C)c1ccc(CN2CCc3cc(S(=O)(=O)Nc4ccc(OCCCc5ccccc5)cc4F)ccc3C2)cn1` [Working Example 6-26], the figure is 218 nM; as for `CC(C)(C)c1ccc(NC(=O)N2Cc3ccc(S(=O)(=O)Nc4ccc(OCCCC5CCCC5)cc4F)cc3C2)cc1` [19-3], 4 nM.
Still for that read-out and setting: as for `CC(C)(C)c1ccc(CN2CCc3cc(S(=O)(=O)Nc4ccc(OCCCC5CCCCC5)cc4F)ccc3C2)cn1` [Working Example 6-35], the figure is 65 nM; as for `CC(C)(C)c1ccc(NC(=O)N2Cc3ccc(S(=O)(=O)Nc4ccc(OCCc5ccccn5)cc4F)cc3C2)cc1` [19-12], 23 nM; as for `CC(C)(C)c1ccc(CCN2CCc3cc(S(=O)(=O)Nc4ccc(CCCC5CCCCC5)cc4F)ccc3C2)cc1` [Working Example 6-19], 62 nM.
`CC(C)(C)c1ccc(NC(=O)N2Cc3ccc(S(=O)(=O)Nc4ccc(OCCOc5ccccc5)cc4F)cc3C2)cc1` [18-18]: the IC50 turned out to be 136 nM.
Still for that read-out and setting: as for `O=C(c1ccc(C(F)(F)F)nc1)N1CCc2cc(S(=O)(=O)Nc3ccc(CCCC4CCCC4)cc3F)ccc2C1` [Working Example 1-5], the figure is 154 nM; as for `Cc1nc(-c2ccc(C(F)(F)F)cc2)sc1CN1CCc2cc(S(=O)(=O)Nc3ccc(CCCC4CCCC4)cc3F)ccc2C1` [Working Example 6-65], 51 nM; as for `CCC(c1ccc(C(C)(C)C)cc1)N1CCc2cc(S(=O)(=O)Nc3ccc(OCCCc4ccccc4)cc3F)ccc2C1` (stereo not shown) [Working Example 11-4], 235 nM.
As for `CC(C)(C)c1ccc(CCN2CCc3cc(S(=O)(=O)Nc4ccc(OCCCc5ccccc5)cc4F)ccc3C2)cn1` [Working Example 6-45], the IC50 amounted to 286 nM.
